Source: patent US20180271470A1, “METHODS FOR QUANTIFYING PANCREATIC BETA CELL FUNCTION AND MASS PROPERTIES WITH RADIOMANGANESE POSITRON EMISSION TOMOGRAPHY” (Wisconsin Alumni Research Foundation, priority 2017, published 2018)
Blank lines part the entries; values can stand above or below the compound they belong to.

Columns and labels:
[1] = OLINDA dosimetry calculations for Mn-51 and daughter Cr-51; set-up: species or system human; settings: OLINDA input
Description: Due to the rapid blood clearance of Mn^2+, OLINDA (Organ Level INternal Dose Assessment) dosimetry calculations were performed assuming instant compartment localization with organ activity fractions equal to those measured by ex vivo biodistribution herein. Based on the previously measured lengthy organ residence times of Mn^2+, it was also assumed that the effective organ clearance half-life (Ter) was equal to the radioactive half-life of Mn-51 (t1/2: 45.6 min). It was also assumed that Mn-51 injections were 100% radionuclidically pure. In regards to the daughter isotope, Cr-51 (t1/2: 27.7 d), it was assumed that the activity remained in same organ compartments as the parent Mn-51 biodistribution without biological clearance. Standard radiation weighting factors were used (γ=1, β=1). Based on these assumptions, effective dose (ED) and effective dose equivalent (EDE) (units of mSv/MBq) were calculated for a standard adult male and female.

[2] = Ex vivo ^51Mn biodistribution by gamma counting; format: in vivo, ICR mice; settings: awake I.V. bolus, gamma counting after 1 h PET
Description: (§1) All animal studies were conducted under a protocol approved by the University of Wisconsin Institutional Animal Care and Use Committee. Non-fasted healthy ICR mice (Envigo, Indianapolis, Ind.) were divided into two groups. Mice in the first group (n=2) were anaesthetized by isoflurane (4% induction, 1% maintenance), tail-vein catheters were affixed, and mice were placed on the microPET/CT bed in a prone position (Inveon, Siemens Preclinical Solutions, Knoxville, Tenn.). Dynamic PET acquisition was started and ^51Mn^2+ was administered in a rapid bolus (3.3 MBq, 200 μl, 10% 0.01 M NaOAc/90% PBS) through the tail-vein catheter. Sixty minutes of dynamic PET data were acquired following ^51Mn^2+ administration. Due to the impact of volatile anesthetics on voltage-dependent calcium channel (VDCC) activation, the second group (n=3) received an intravenous (I.V.) bolus of ^51Mn^2+ (1.6 MBq, 200 μL, 10% 0.01 M NaOAc/90% PBS) while awake. 60 minutes post-injection mice were anaesthetized by isoflurane and a 10 minute static PET scan acquired. Following imaging, mice were immediately sacrificed by CO2 asphyxiation, and organs were extracted. Ex vivo biodistribution measurements were performed by gamma counting (Wizard 2480, PerkinElmer, Waltham, Mass.).

[3] = Dynamic PET of ^51Mn^2+ rapid IV bolus under isoflurane; format: in vivo, ICR mice
Description: as §1
Dynamic PET data were binned into […] (12×5 s, 6×10 s, 6×30 s, 6×150 s, 6×300 s) and frames were reconstructed using non-scatter-corrected 3D ordered-subset expectation maximization followed by maximum a posteriori reconstruction (OSEM3D/MAP). Static PET data were reconstructed into a single frame by OSEM3D/MAP.

[4] = Static PET of ^51Mn^2+ injected in awake mice; format: in vivo, ICR mice; settings: I.V. bolus non-anaesthetized, n=3, PET 60 minutes post-injection
Description: as §1, with “Mass.). […]” for “Mass.).”

[5] = [^18F]-FDG study; cited from earlier work
[6] = mice, other studies; cited from earlier work

Number of disintigrations, Total Body ([1]; Total Body): 8.70E−01 MBq-h/MBq
Number of disintigrations, Adrenals ([1]; source organ Adrenals): 0.00E+00 MBq-h/MBq
Number of disintigrations, Brain ([1]; source organ Brain): 4.43E−03 MBq-h/MBq
Number of disintigrations, Breasts ([1]; source organ Breasts): 0.00E+00 MBq-h/MBq
Number of disintigrations, Cortical Bone ([1]; source organ Cortical Bone): 8.40E−04 MBq-h/MBq
Number of disintigrations, Gallbladder Contents ([1]; source organ Gallbladder Contents): 0.00E+00 MBq-h/MBq
Number of disintigrations, Heart Contents ([1]; source organ Heart Contents): 0.00E+00 MBq-h/MBq
Number of disintigrations, Heart Wall ([1]; source organ Heart Wall): 2.37E−02 MBq-h/MBq
Number of disintigrations, Kidneys ([1]; source organ Kidneys): 6.91E−02 MBq-h/MBq
Number of disintigrations, LLI ([1]; source organ LLI): 0.00E+00 MBq-h/MBq
Number of disintigrations, Liver ([1]; source organ Liver): 6.30E−02 MBq-h/MBq
Number of disintigrations, Lungs ([1]; source organ Lungs): 1.68E−02 MBq-h/MBq
Number of disintigrations, Muscle ([1]; source organ Muscle): 2.18E−03 MBq-h/MBq
Number of disintigrations, Ovaries ([1]; source organ Ovaries): 0.00E+00 MBq-h/MBq
Number of disintigrations, Pancreas ([1]; source organ Pancreas): 4.11E−02 MBq-h/MBq
Number of disintigrations, Red Marrow ([1]; source organ Red Marrow): 0.00E+00 MBq-h/MBq
Number of disintigrations, Small Intestine ([1]; source organ Small Intestine): 0.00E+00 MBq-h/MBq
Number of disintigrations, Spleen ([1]; source organ Spleen): 9.16E−03 MBq-h/MBq
Number of disintigrations, Stomach ([1]; source organ Stomach): 0.00E+00 MBq-h/MBq
Number of disintigrations, Testes ([1]; source organ Testes): 0.00E+00 MBq-h/MBq
Number of disintigrations, Thymus ([1]; source organ Thymus): 0.00E+00 MBq-h/MBq
Number of disintigrations, Thyroid ([1]; source organ Thyroid): 0.00E+00 MBq-h/MBq
Number of disintigrations, Trabecular Bone ([1]; source organ Trabecular Bone): 0.00E+00 MBq-h/MBq
Number of disintigrations, ULI ([1]; source organ ULI): 6.42E−03 MBq-h/MBq
Number of disintigrations, Urinary Bladder Contents ([1]; source organ Urinary Bladder Contents): 0.00E+00 MBq-h/MBq
Number of disintigrations, Uterus/Uterine Wall ([1]; source organ Uterus/Uterine Wall): 0.00E+00 MBq-h/MBq
Mn-51 uptake in heart, ex vivo biodistribution [2]: 5.6±1.8 SUV
Mn-51 uptake in kidneys, ex vivo biodistribution [2]: 9.2±0.7 SUV
Mn-51 uptake in pancreas, ex vivo biodistribution [2]: 7.0±1.3 SUV
kidney uptake, anaesthetized dynamic PET subjects ([3]; I.V. bolus under isoflurane, n=2): 13.7±2.6 SUV
duration of initial distribution ([3]; rapid IV bolus, dynamic PET): < 1 min
heart blood-pool clearance half-life ([3]; rapid IV bolus, heart TAC 0.375 to 3.25 minutes post-injection): 7.7 ± 0.7 s
kidney uptake, static PET subjects [4]: 7.7±1.1 SUV
Compound: ^51MnCl2 [Mn-51]

Compound: OC[C@H]1OC(O)[C@H]([18F])[C@@H](O)[C@@H]1O (some centres unmarked) [[^18F]-FDG]
average dose for a study [5]: 14.1 mSv

Compound: [63Zn+2] [^63Zn^2+]
pancreatic uptake [6]: significant
